Reference: patent US12077503B2, “Substituted cyclic amides and their use as herbicides” (FMC CORPORATION, priority 2015, dated 2024)

How the values were obtained:
Test in all cases: Test C preemergence
Type in all cases: in vivo
[1] = tested on: Galium (catchweed bedstraw, Galium aparine); conditions: for Plant response rating, Galium: scale 0 to 100, 0 no effect, 100 complete control
Method in brief: (§1)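 Herbicidal effect, applied preemergence to sown seeds or postemergence to 1- to 4-leaf plants, was scored visually 13 to 15 d after application, 0 to 100 versus controls.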

[2] = tested on: barnyardgrass (Echinochloa crus-galli); conditions: for Plant response rating, Barnyardgrass: scale 0 to 100, 0 no effect, 100 complete control
Method in brief: as §1

[3] = tested on: blackgrass (Alopecurus myosuroides); conditions: for Plant response rating, Blackgrass: scale 0 to 100, 0 no effect, 100 complete control
Method in brief: as §1

[4] = tested on: corn (Zea mays); conditions: for Plant response rating, Corn: scale 0 to 100, 0 no effect, 100 complete control
Method in brief: as §1

[5] = tested on: crabgrass, large (large crabgrass, Digitaria sanguinalis); conditions: for Plant response rating, Crabgrass, Large: scale 0 to 100, 0 no effect, 100 complete control
Method in brief: as §1

[6] = tested on: foxtail, giant (giant foxtail, Setaria faberii); conditions: for Plant response rating, Foxtail, Giant: scale 0 to 100, 0 no effect, 100 complete control
Method in brief: as §1

[7] = tested on: johnsongrass (Sorghum halepense); conditions: for Plant response rating, Johnsongrass: scale 0 to 100, 0 no effect, 100 complete control
Method in brief: as §1

[8] = tested on: lambsquarters (Chenopodium album); conditions: for Plant response rating, Lambsquarters: scale 0 to 100, 0 no effect, 100 complete control
Method in brief: as §1

[9] = tested on: morningglory (Ipomoea coccinea); conditions: for Plant response rating, Morningglory: scale 0 to 100, 0 no effect, 100 complete control
Method in brief: as §1

[10] = tested on: nutsedge, yellow (yellow nutsedge, Cyperus esculentus); conditions: for Plant response rating, Nutsedge, Yellow: scale 0 to 100, 0 no effect, 100 complete control
Method in brief: as §1

[11] = tested on: oilseed rape (Brassica napus); conditions: for Plant response rating, Oilseed Rape: scale 0 to 100, 0 no effect, 100 complete control
Method in brief: as §1

[12] = tested on: pigweed (Amaranthus retroflexus); conditions: for Plant response rating, Pigweed: scale 0 to 100, 0 no effect, 100 complete control
Method in brief: as §1

[13] = tested on: ragweed (common ragweed, Ambrosia elatior); conditions: for Plant response rating, Ragweed: scale 0 to 100, 0 no effect, 100 complete control
Method in brief: as §1

[14] = tested on: ryegrass, Italian (Italian ryegrass, Lolium multiflorum); conditions: for Plant response rating, Ryegrass, Italian: scale 0 to 100, 0 no effect, 100 complete control
Method in brief: as §1

[15] = tested on: soybean (Glycine max); conditions: for Plant response rating, Soybean: scale 0 to 100, 0 no effect, 100 complete control
Method in brief: as §1

[16] = tested on: velvetleaf (Abutilon theophrasti); conditions: for Plant response rating, Velvetleaf: scale 0 to 100, 0 no effect, 100 complete control
Method in brief: as §1

[17] = tested on: waterhemp (common waterhemp, Amaranthus rudis); conditions: for Plant response rating, Waterhemp: scale 0 to 100, 0 no effect, 100 complete control
Method in brief: as §1

[18] = tested on: wheat (winter wheat, Triticum aestivum); conditions: for Plant response rating, Wheat: scale 0 to 100, 0 no effect, 100 complete control
Method in brief: as §1

[19] = 31 g ai/ha, 0 is no effect, 100 is complete control

Cc1ccc(C2CN(C)C(=O)C2C(=O)Nc2ccccc2C(F)(F)F)cc1 (stereo not drawn) [Compound 665]
Plant response rating (scale of 0 to 100), Galium [1, 19]: 90
Plant response rating, Galium ([1]; 62 g ai/ha): 90
Plant response rating, Galium ([1]; 125 g ai/ha): 90
Plant response rating, Galium ([1]; 250 g ai/ha): 90
Plant response rating (scale of 0 to 100), Barnyardgrass [2, 19]: 85
Plant response rating, Barnyardgrass ([2]; 62 g ai/ha): 95
Plant response rating, Barnyardgrass ([2]; 125 g ai/ha): 98
Plant response rating, Barnyardgrass ([2]; 250 g ai/ha): 100
Plant response rating (scale of 0 to 100), Blackgrass [3, 19]: 60
Plant response rating, Blackgrass ([3]; 62 g ai/ha): 60
Plant response rating, Blackgrass ([3]; 125 g ai/ha): 90
Plant response rating, Blackgrass ([3]; 250 g ai/ha): 90
Plant response rating (scale of 0 to 100), Corn [4, 19]: 0
Plant response rating, Corn ([4]; 62 g ai/ha): 10
Plant response rating, Corn ([4]; 125 g ai/ha): 75
Plant response rating, Corn ([4]; 250 g ai/ha): 70
Plant response rating (scale of 0 to 100), Crabgrass, Large [5, 19]: 98
Plant response rating, Crabgrass, Large ([5]; 62 g ai/ha): 100
Plant response rating, Crabgrass, Large ([5]; 125 g ai/ha): 100
Plant response rating, Crabgrass, Large ([5]; 250 g ai/ha): 100
Plant response rating (scale of 0 to 100), Foxtail, Giant [6, 19]: 90
Plant response rating, Foxtail, Giant ([6]; 62 g ai/ha): 95
Plant response rating, Foxtail, Giant ([6]; 125 g ai/ha): 98
Plant response rating, Foxtail, Giant ([6]; 250 g ai/ha): 98
Plant response rating (scale of 0 to 100), Johnsongrass [7, 19]: 10
Plant response rating, Johnsongrass ([7]; 62 g ai/ha): 25
Plant response rating, Johnsongrass ([7]; 125 g ai/ha): 25
Plant response rating, Johnsongrass ([7]; 250 g ai/ha): 45
Plant response rating (scale of 0 to 100), Lambsquarters [8, 19]: 10
Plant response rating, Lambsquarters ([8]; 62 g ai/ha): 45
Plant response rating, Lambsquarters ([8]; 125 g ai/ha): 70
Plant response rating, Lambsquarters ([8]; 250 g ai/ha): 85
Plant response rating (scale of 0 to 100), Morningglory [9, 19]: 0
Plant response rating, Morningglory ([9]; 62 g ai/ha): 15
Plant response rating, Morningglory ([9]; 125 g ai/ha): 20
Plant response rating, Morningglory ([9]; 250 g ai/ha): 10
Plant response rating (scale of 0 to 100), Nutsedge, Yellow [10, 19]: 0
Plant response rating, Nutsedge, Yellow ([10]; 62 g ai/ha): 0
Plant response rating, Nutsedge, Yellow ([10]; 125 g ai/ha): 0
Plant response rating, Nutsedge, Yellow ([10]; 250 g ai/ha): 0
Plant response rating (scale of 0 to 100), Oilseed Rape [11, 19]: 30
Plant response rating, Oilseed Rape ([11]; 62 g ai/ha): 60
Plant response rating, Oilseed Rape ([11]; 125 g ai/ha): 80
Plant response rating, Oilseed Rape ([11]; 250 g ai/ha): 85
Plant response rating (scale of 0 to 100), Pigweed [12, 19]: 0
Plant response rating, Pigweed ([12]; 62 g ai/ha): 60
Plant response rating, Pigweed ([12]; 125 g ai/ha): 50
Plant response rating, Pigweed ([12]; 250 g ai/ha): 50
Plant response rating (scale of 0 to 100), Ragweed [13, 19]: 40
Plant response rating, Ragweed ([13]; 62 g ai/ha): 55
Plant response rating, Ragweed ([13]; 125 g ai/ha): 70
Plant response rating, Ragweed ([13]; 250 g ai/ha): 75
Plant response rating (scale of 0 to 100), Ryegrass, Italian [14, 19]: 30
Plant response rating, Ryegrass, Italian ([14]; 62 g ai/ha): 60
Plant response rating, Ryegrass, Italian ([14]; 125 g ai/ha): 65
Plant response rating, Ryegrass, Italian ([14]; 250 g ai/ha): 60
Plant response rating (scale of 0 to 100), Soybean [15, 19]: 10
Plant response rating, Soybean ([15]; 62 g ai/ha): 10
Plant response rating, Soybean ([15]; 125 g ai/ha): 0
Plant response rating, Soybean ([15]; 250 g ai/ha): 10
Plant response rating (scale of 0 to 100), Velvetleaf [16, 19]: 20
Plant response rating, Velvetleaf ([16]; 62 g ai/ha): 35
Plant response rating, Velvetleaf ([16]; 125 g ai/ha): 60
Plant response rating, Velvetleaf ([16]; 250 g ai/ha): 70
Plant response rating (scale of 0 to 100), Waterhemp [17, 19]: 50
Plant response rating, Waterhemp ([17]; 62 g ai/ha): 40
Plant response rating, Waterhemp ([17]; 125 g ai/ha): 65
Plant response rating, Waterhemp ([17]; 250 g ai/ha): 85
Plant response rating (scale of 0 to 100), Wheat [18, 19]: 15
Plant response rating, Wheat ([18]; 62 g ai/ha): 50
Plant response rating, Wheat ([18]; 125 g ai/ha): 50
Plant response rating, Wheat ([18]; 250 g ai/ha): 90
